Holding throughout (type): in vivo, Crj:Wistar rat (male)
The test system of assay [1] is gastric juice secretion. The assay can be described thus: Anti-gastric juice secretion test, intraduodenal administration (pylorus ligation). The following applies: 100 mg/kg intraduodenal, 4 h after pylorus ligation; for pH of gastric juice: control 1.7; for Amount of gastric juice: control 2.6; for Free hydrochloric acid: control 116; for Total acidity: control 168. Here is the method: Each 100 mg/kg of the test compounds was administered duodenally to a male Crj:Wistar rat of 205 to 240 g body weight fasted for ca. 24 hours (7 to 8 rats per group) and immediately after the dose the pylorus was ligated under diethyl ether anesthesia. Four hours after the ligation, the animal was killed and the stomach was isolated and the amount and the pH of gastric juice and free hydrochloric acid contained in it and the total acidity of it were measured to examine the effect of inhibiting gastric juice secretion. The test compounds were dosed after dissolved in physiological saline or in physiological saline containing Tween 80 added. Five […] of physiological saline was administered to the control group.

Assay [2] has as its system aspirin ulcer. The assay can be described thus: Anti-aspirin ulcer test, oral administration. The following applies: 100 mg/kg oral, 6 h; for Gastric damage index: 30 min before aspirin 200 mg/kg oral, control 76.0; for inhibition in vivo at 100 mg/kg: Rattus norvegicus, gastric damage index vs control, aspirin 200 mg/kg, read-out: Inhibition rate. Here is the method:
(§1) Each 100 mg/kg of the test compounds was administered orally to a male Crj:Wistar rat of 198 to 243 g body weight fasted for ca. 24 hours (7 to 8 rats per group) and 30 minutes after the administration 200 mg/5 ml/kg of aspirin suspended in 0.5% sodium CMC aqueous solution was administered orally. Six hours later the animals was killed by exsanguination and the cardia part of stomach was ligated and 10 ml of 1% formaline solution was poured into the stomach and the stomach was extirpated. Then, it was incised along the greater curvature side and washed with physiological saline and the major axis of the spotted and linear erosion and ulcer were measured under a steromicroscope and their total sum per head was calculated as the gastric damage index (mm) and the effect was judged by the inhibiting rate against the control group [(Gastric damage index of the control group-Gastric damage index of the test compound)/Gastric damage index of the control group×100]. 0.5 ml/body weight of 1% pontamine sky blue physiological saline was injected intravenously 10 minutes before the slaughter. The test compound was administered after dissolved in physiological saline or in physiological saline containing Tween 80 added. Five […] of physiological saline was administered to the control group.

In assay [3] the test system is water immersion restriction stress ulcer. The assay can be described thus: Water immersion restriction stress ulcer, oral administration. The following applies: for Gastric damage index: 30 min before 6 h water immersion stress, control 15.7; for inhibition in vivo at 100 mg/kg: Rattus norvegicus, 6 h, read-out: Inhibition rate. Here is the method:
(§2) After the stress loading, the animal was killed by exsanguination and the cardia part of stomach was ligated and then 10 ml of 1% formalin was poured into the stomach and the stomach was extirpated. […] 0.5 ml/body weight of 1% pontamine sky blue physiological saline was injected intravenously 10 minutes before the slaughter. The test compound was administered after dissolved in physiological saline or in physiological saline containing Tween 80 added. Five […] of physiological saline was administered to the control group.

Assay [4] relates to gastric juice secretion. Briefly: Anti-gastric juice secretion test, intraperitoneal administration (pylorus ligation). The following applies: 100 mg/kg intraperitoneal, 30 min before pylorus ligation.
Assay [5] has as its system aspirin ulcer. Briefly: Anti-aspirin ulcer test, intraperitoneal administration. As to the method: as §1
Each 100 mg/kg of the test compound was abdominally injected to a male Crj:Wistar rat of 210 to 265 g body weight fasted for ca. 24 hours (7 to 8 rats per group) and the procedures were carried out in a same manner as in oral administration.

In assay [6] the test system is water immersion restriction stress ulcer. The assay can be described thus: Water immersion restriction stress ulcer, intraperitoneal administration. The following applies: 100 mg/kg intraperitoneal. Here is the method:
as §2

The mark [7] stands for this setting: gastric damage index vs control, 100 mg/kg oral, water immersion stress.

Each structure is given as a SMILES string. Read-outs that look alike come from different tables or passages of the source.

Take `CN(C(Cc1ccc(O)cc1)CN1CCC(OCc2ccc(Cl)c(Cl)c2)CC1)S(=O)(=O)c1cccc2cnccc12` (centres unmarked) [(8), N-{1-(p-hydroxybenzyl)-2-[4-(3,4-dichlorobenzyloxy)piperidino]ethyl}-N-methyl-5-isoquinoline sulfonamide]: in the assay on gastric juice secretion [1], the “pH of gastric juice” value is on record as 2.3, the “Amount of gastric juice” value is 1.6 ml/100 g body weight, the Free hydrochloric acid is 32 μEq/100 g body weight and the Total acidity stood at 68 μEq/100 g body weight. In addition, in the assay on aspirin ulcer [2], the Gastric damage index turned out to be 28.9 mm and the inhibition in vivo at 100 mg/kg was 62%. The compound further yielded a Gastric damage index in assay [3] (100 mg/kg oral) of 6.5 mm. In addition, the inhibition in vivo at 100 mg/kg in assay [3] (po) was found to be 59%.

On to `CN(C(Cc1ccc(O)cc1)CN1CCC(c2ccccc2)CC1)S(=O)(=O)c1cccc2cnccc12` (centres unmarked) [(11), N-[1-(p-hydroxybenzyl)-2-(4-phenylpiperidino)ethyl]-N-methyl-5-isoquinoline sulfonamide], for which, in the assay on gastric juice secretion [1], the “pH of gastric juice” value stood at 2.5, the “Amount of gastric juice” value turned out to be 1.5 ml/100 g body weight, the Free hydrochloric acid was 36 μEq/100 g body weight and the Total acidity is on record as 65 μEq/100 g body weight. Also, in the assay on aspirin ulcer [2], the Gastric damage index was 27.3 mm and the inhibition in vivo at 100 mg/kg came out at 64%. The Gastric damage index in assay [3] (100 mg/kg oral) worked out at 6.8 mm. Also, the inhibition in vivo at 100 mg/kg in assay [3] (setting [7]) was found to be 57%.

On to `CN(C(Cc1ccc(OS(=O)(=O)c2cccc3cnccc23)cc1)C(=O)N1CCN(c2ccccc2)CC1)S(=O)(=O)c1cccc2cnccc12` (centres unmarked) [(13), N-[N,O-bis(5-isoquinolinesulfonyl)-N-methyltyrosyl]-4-phenylpiperizine], for which the results for the “pH of gastric juice” value with gastric juice secretion [1] and in the assay on gastric juice secretion [4] (control 1.7) were 2.3 and 2.4, respectively. Moreover, the results for the “Amount of gastric juice” value in the assay on gastric juice secretion [1] and in the assay with gastric juice secretion [4] (control 3.2) were 1.9 ml/100 g body weight and 1.6 ml/100 g body weight, respectively. Moreover, the Free hydrochloric acid with gastric juice secretion [4] (control 155) worked out at 55 μEq/100 body weight. The compound also registered a Total acidity with gastric juice secretion [4] (control 208) of 102 μEq/100 body weight. Besides, the Gastric damage index was determined as 30.3 mm in the assay with aspirin ulcer [2]; 17.6 mm with aspirin ulcer [5] (100 mg/kg intraperitoneal (abdominally injected), control 58.8); 5.4 mm in assay [3] (100 mg/kg oral); 6.4 mm in assay [6] (control 22.7). For the same compound, the inhibition in vivo at 100 mg/kg was 60% in the assay with aspirin ulcer [2] and 66% in assay [3] (setting [7]). Further, the Inhibition rate with aspirin ulcer [5] (gastric damage index vs control, 100 mg/kg intraperitoneal) stood at 70%; in assay [6] (gastric damage index vs control) it was 72%.

For `O=S(=O)(NC(Cc1ccc(OS(=O)(=O)c2cccc3cnccc23)cc1)CN1CCN(c2ccc(F)cc2)CC1)c1cccc2cnccc12` (centres unmarked) [(3), N-{2-[4-(p-fluorophenyl)piperazinyl]-1-(p-(5-isoquinolinesulfonyloxy)benzyl]ethyl}-5-isoquinoline sulfonamide], in the assay on gastric juice secretion [1], the “pH of gastric juice” value was found to be 1.8, the “Amount of gastric juice” value is listed as 2.5 ml/100 g body weight, the Free hydrochloric acid is given as 82 μEq/100 g body weight and the Total acidity came out at 140 μEq/100 g body weight. In the assay with aspirin ulcer [2], the Gastric damage index came to 56.7 mm and the inhibition in vivo at 100 mg/kg was 25%. This compound came in with a Gastric damage index in assay [3] (100 mg/kg oral) of 11.2 mm. Besides, in assay [3] (setting [7]), the inhibition in vivo at 100 mg/kg was determined as 29%.

Take `O=S(=O)(NC(Cc1ccc(O)cc1)CN1CCN(c2ccccc2)CC1)c1cccc2cnccc12` (centres unmarked) [(1), N-[1-(p-hydroxybenzyl)-2-(4-phenylpiperazinyl)ethyl]-5-isoquinoline sulfonamide]: in the assay on gastric juice secretion [1], the “pH of gastric juice” value amounted to 2.0, the “Amount of gastric juice” value is 2.2 ml/100 g body weight, the Free hydrochloric acid came to 36 μEq/100 g body weight and the Total acidity came to 71 μEq/100 g body weight. Besides, in the assay with aspirin ulcer [2], the Gastric damage index turned out to be 40.1 mm and the inhibition in vivo at 100 mg/kg came out at 47%. For the same compound, the Gastric damage index in assay [3] (100 mg/kg oral) amounted to 10.5 mm. The inhibition in vivo at 100 mg/kg in assay [3] (setting [7]) worked out at 33%.

As for `COc1ccc(CC(CN2CCC(OCc3ccc(Cl)c(Cl)c3)CC2)N(C)S(=O)(=O)c2cccc3cnccc23)cc1` (centres unmarked) [(9), N-{1-(p-methoxybenzyl)-2-[4-(3,4-dichlorobenzyloxy)piperidino]ethyl}-N-methyl-5-isoquinoline sulfonamide], in the assay with gastric juice secretion [1], the “pH of gastric juice” value is 2.1, the “Amount of gastric juice” value was determined as 2.2 ml/100 g body weight, the Free hydrochloric acid is on record as 44 μEq/100 g body weight and the Total acidity is given as 89 μEq/100 g body weight. For the same compound, in the assay on aspirin ulcer [2], the Gastric damage index is reported as 45.4 mm and the inhibition in vivo at 100 mg/kg turned out to be 40%. For the same compound, the Gastric damage index in assay [3] (100 mg/kg oral) turned out to be 9.7 mm. For the same compound, the inhibition in vivo at 100 mg/kg in assay [3] (setting [7]) was 38%.

In the case of `CN(C(Cc1ccc(O)cc1)CN1CCN(c2cccc(Cl)c2)CC1)S(=O)(=O)c1cccc2cnccc12` (centres unmarked) [(2), N-{2-[4-(m-chlorophenyl)piperazinyl]-1-(p-hydroxybenzyl)ethyl}-N-methyl-5-isoquinoline sulfonamide], in the assay with gastric juice secretion [1], the “pH of gastric juice” value is reported as 2.1, the “Amount of gastric juice” value was 2.1 ml/100 g body weight, the Free hydrochloric acid is 40 μEq/100 g body weight and the Total acidity is listed as 92 μEq/100 g body weight. In addition, in the assay with aspirin ulcer [2], the Gastric damage index stood at 40.3 mm and the inhibition in vivo at 100 mg/kg was 46%. In assay [3] (100 mg/kg oral), this compound showed a Gastric damage index of 9.7 mm. Also, the inhibition in vivo at 100 mg/kg in assay [3] (setting [7]) was found to be 38%.

Turning to `CN(C(Cc1ccc(OS(=O)(=O)c2cccc3cnccc23)cc1)CN1CCC(c2ccccc2)CC1)S(=O)(=O)c1cccc2cnccc12` (centres unmarked) [(10), N-{1-(p-(5-isoquinolinesulfonyloxy)benzyl]-2-(4-phenylpiperidino)ethyl}-N-methyl-5-isoquinoline sulfonamide], in the assay with gastric juice secretion [1], the “pH of gastric juice” value came to 1.8, the “Amount of gastric juice” value amounted to 2.4 ml/100 g body weight, the Free hydrochloric acid stood at 68 μEq/100 g body weight and the Total acidity stood at 102 μEq/100 g body weight. In addition, in the assay on aspirin ulcer [2], the Gastric damage index is reported as 48.3 mm and the inhibition in vivo at 100 mg/kg was found to be 37%. Moreover, in assay [3] (100 mg/kg oral), the Gastric damage index is listed as 11.2 mm. Further, the inhibition in vivo at 100 mg/kg in assay [3] (setting [7]) worked out at 29%.

For the compound `O=C(C(Cc1ccc(OS(=O)(=O)c2cccc3cnccc23)cc1)NS(=O)(=O)c1cccc2cnccc12)N1CCN(c2ccccc2)CC1` (centres unmarked) [(12), N-[N,O-bis(5-isoquinolinesulfonyl)tyrosyl]-4-phenylpiperizine], in the assay on gastric juice secretion [1], the “pH of gastric juice” value amounted to 2.1, the “Amount of gastric juice” value amounted to 2.2 ml/100 g body weight, the Free hydrochloric acid turned out to be 41 μEq/100 g body weight and the Total acidity is 80 μEq/100 g body weight. In the assay with aspirin ulcer [2], the Gastric damage index was found to be 43.5 mm and the inhibition in vivo at 100 mg/kg turned out to be 43%. Further, the Gastric damage index in assay [3] (100 mg/kg oral) was determined as 9.4 mm. The inhibition in vivo at 100 mg/kg in assay [3] (setting [7]) stood at 40%.

With `O=S(=O)(NC(Cc1ccc(O)cc1)CN1CCCN(c2ccccc2)CC1)c1cccc2cnccc12` (centres unmarked) [(6), N-[1-(p-hydroxybenzyl)-2-(4-phenylhomopiperazinyl)ethyl]-5-isoquinolinesulfonamide], in the assay on gastric juice secretion [1], the “pH of gastric juice” value is on record as 1.8, the “Amount of gastric juice” value was 2.3 ml/100 g body weight, the Free hydrochloric acid is on record as 53 μEq/100 g body weight and the Total acidity is reported as 87 μEq/100 g body weight. For the same compound, in the assay with aspirin ulcer [2], the Gastric damage index amounted to 52.9 mm and the inhibition in vivo at 100 mg/kg turned out to be 30%. The Gastric damage index in assay [3] (100 mg/kg oral) was 12.2 mm. For the same compound, in assay [3] (setting [7]), the inhibition in vivo at 100 mg/kg came to 22%.
